Assay results reported in patent publication US4355179A, “Radioactive nuclide labeled propiophenone compounds” (Burroughs Wellcome Co., priority 1980, dated 1982).

Experiments:
[1] = tested on: antisera raised by a bupropion variant-carrier material conjugate; assay: Competition with radiolabeled bupropion or radiolabeled competitor for binding to antisera; settings: against radiolabeled bupropion or radiolabeled competitor
anti-compound 1 sera = assay: RIA of bupropion using 125I-labeled competitor with anti-compound 1 sera; assay type: binding; settings: compound 6 with anti-compound 1 sera, compared with the other RIA's
Procedure: Samples of six standard solutions of bupropion in blank plasma having concentrations of 0.39 to 50 ng/ml) are pipetted (0.1 ml each) in duplicate into 12×75 mm plastic tubes. Duplicate non-specific binding (no antibody) and maximum binding tubes (no unlabeled bupropion) receive 0.1 ml blank plasma. Spiked plasma controls at several concentrations of (e.g., 1.0, 10.0, and 100 ng/ml) and plasma samples for assay (diluted into the standard range with blank plasma if necessary) are assayed in duplicate. After being placed in an ice bath, all tubes receive (in order) 0.2 ml ^3 H bupropion (416 pg. containing approximately 10^4 cpm) and 0.7 ml anti-bupropion serum (raised to a ring-functionalized immunogen according to the present invention) (at pre-determined dilutions such that approximately 40% of the ^3 H bupropion added is bound), both in assay buffer (0.05 M phosphate-bufferedisotonic saline, containing 0.01 M EDTA and 0.1% gelatin, pH 7.0). […] The supernatants, containing antibody-bound ^3 H bupropion are carefully decanted into liquid scintillation cocktail for quantitation of ^3 H. After counts (minus average non-specific binding cpm) are expressed as percentages of average maximum binding cpm, bupropion concentrations in plasma samples and spiked controls are read from a standard curve (log concentration vs percent average maximum binding). […]

[2] = tested on: anti-compound 2 sera, anti-compound 3 sera; assay: RIA of bupropion using 125I-labeled competitors with anti-compound 2 sera and anti-compound 3 sera; assay type: binding; settings: with anti-compound 2 or anti-compound 3 sera
Procedure: Samples of six standard solutions of bupropion in blank plasma having concentrations of 0.39 to 50 ng/ml) are pipetted (0.1 ml each) in duplicate into 12×75 mm plastic tubes. Duplicate non-specific binding (no antibody) and maximum binding tubes (no unlabeled bupropion) receive 0.1 ml blank plasma. Spiked plasma controls at several concentrations of (e.g., 1.0, 10.0, and 100 ng/ml) and plasma samples for assay (diluted into the standard range with blank plasma if necessary) are assayed in duplicate. After being placed in an ice bath, all tubes receive (in order) 0.2 ml ^3 H bupropion (416 pg. containing approximately 10^4 cpm) and 0.7 ml anti-bupropion serum (raised to a ring-functionalized immunogen according to the present invention) (at pre-determined dilutions such that approximately 40% of the ^3 H bupropion added is bound), both in assay buffer (0.05 M phosphate-bufferedisotonic saline, containing 0.01 M EDTA and 0.1% gelatin, pH 7.0). Non-specific binding tubes receive 0.7 ml assay buffer.) Following incubation either at 25° C. for 2 hours or overnight at 4° C., bound and free ^3 H bupropion are separated by incubation for 10 min at 0° C. with 0.5 ml ice-cold dextran-coated charcoal solution (0.25% dextran, 5 mg/ml charcoal, in assay buffer) followed by centrifugation for 10 minutes at 4° C. […] The supernatants, containing antibody-bound ^3 H bupropion are carefully decanted into liquid scintillation cocktail for quantitation of ^3 H. After counts (minus average non-specific binding cpm) are expressed as percentages of average maximum binding cpm, bupropion concentrations in plasma samples and spiked controls are read from a standard curve (log concentration vs percent average maximum binding).
RIA's have been run according to the method of Example X utilizing ^125 I labeled bupropion competitors of the present invention in conjunction with antisera obtained following immunization with immunogens of the present invention. […] Following the ethanol precipitation of antibody-bound ^125 I-bupropion competitor at equilibrium, ^125 I in the protein pellets was quantified.

SMILES	RIA sensitivity relative to the compound 10 (3H bupropion) assay system [2]	also measured
CC(NC(C)(C)C)C(=O)c1cccc(Cl)c1 (racemic) [bupropion, (±)-2-tert-butylamino-3'-chloropropiophenone]	–	competition for binding to antisera [1]: successfully compete
CC(NC(C)(C)C)C(=NOCC(=O)NCCc1ccc(O)c([125I])c1)c1cccc(Cl)c1 (stereo not drawn) [Compound 6, α-t-Butylamino-3-chloropropiophenone-carboxymethyloxime-^125 I-tyramine amide]	–	RIA sensitivity (anti-compound 1 sera): least sensitive
CC(NC(C)(C)C)C(=O)c1ccc(OCC(=O)NCCc2ccc(O)c([125I])c2)c(Cl)c1 (stereo not drawn) [Compound 7, α-t-Butylamino-3-chloro-4-carbomethoxypropiophenone-^125 I-tyramine amide]	approximately equal	–
CC(NC(C)(C)C)C(=O)c1ccc(CCCOC(=O)CCC(=O)NCCc2ccc(O)c([125I])c2)c(Cl)c1 (stereo not drawn) [Compound 8, α-t-butylamino-3-chloro-4-γ-hydroxypropylpropiophenonehemisuccinate-^125 I-tyramine amide]	approximately equal	–
CC(NC(C)(C)C)C(=O)c1ccc(O)c([125I])c1 (stereo not drawn) [Compound 9, ^125 I-α-t-Butylamino-3-iodo-4-hydroxypropiophenone]	approximately ten times more sensitive	–
